Results reported in article PMC11161644, “An effective and rapidly degradable disinfectant from disinfection byproducts” (Nature Communications, 2024).
“And” between values parts separate entries of the source, which are not always exact repeats. Identical values can stand only once.

Legend:
P. dumerilii embryos = assay: Developmental toxicity (EC50) of OH-DCQ and 2,6-DCQ to P. dumerilii embryos; format: in vivo, Platynereis dumerilii
Description: The third aliquot was subjected to the developmental toxicity assay with P. dumerilii embryos. The aliquot was dissolved in 10 mL of seawater and adjusted to pH 8.2. The embryos at 12-h postfertilization were exposed to different levels of OH-DCQ for 12 h. By 24-h postfertilization, normally and abnormally developed embryos were counted using an inverted stereomicroscope. Based on the percentage of normally developed embryos, an exposure−response curve was generated. The median effective concentration (EC50) was determined using SigmaPlot 12 software. The developmental toxicity of 2,6-DCQ was also evaluated for comparison. The toxicity bioassay was conducted in duplicate.

[1] = UPLC/ESI-tqMS time profile of 2,6-DCQ and its degradation products in simulated seawater (pH 8.2, darkness); OH-DCQ formation; settings: for Concentration: 2,6-DCQ degradation / OH-DCQ formation; for Peak area: 2,6-DCQ degradation
Description: A Waters UPLC system coupled with ESI-tqMS was used to characterize the degradation products of 2,6-DCQ. The UPLC separation was performed using an HSS T3 column (100 × 2.1 mm, 1.8 μm particle size, Waters) with a column temperature of 35 °C. A gradient eluent of methanol–water was applied at a flow rate of 0.4 mL min^−1. The gradient program was set as follows: methanol/water (v/v) ratio changed linearly from 5/95 to 90/10 in the first 8 min and then returned to 5/95 during 8.0‒8.1 min, which was held for 2.9 min for re-equilibration. The ESI-tqMS was set as follows: ESI negative mode, capillary voltage 2.8 kV, cone voltage 10–50 V (depending on analytes), cone gas flow 50 L h^−1, source temperature 120 °C, desolvation temperature 400 °C, desolvation gas flow 800 L h^−1, collision energy 15–50 eV (depending on analytes), collision gas (argon) flow 0.25 mL min^−1, and mass resolution 15 (1-unit resolution).
The degradation of 2,6-DCQ in seawater was simulated by adding 10 mg L^−1 2,6-DCQ to 50 mL ultrapure water, which was adjusted to pH 8.2 with 5 mM sodium carbonate (to simulate the alkalinity in seawater and also to be compatible with the subsequent UPLC/ESI-tqMS analysis). The sample was kept in darkness for 0–24 h, during which the pH of the sample was maintained at 8.1 ± 0.1. At a designated reaction time, 7.5 μL of the sample was injected into the UPLC system. For a nonhalogenated degradation product, the selected ion recording (SIR) mode with a dwell time of 0.05 s was adopted to obtain the retention time. For halogenated degradation products, the multiple reaction monitoring mode with a dwell time of 0.05 s was used to obtain the retention time and the isotopic abundance ratio. To investigate the time-dependent profile of 2,6-DCQ and its degradation products, the peak area of each compound was determined using the SIR mode in the UPLC/ESI-tqMS analysis.
The second aliquot was subjected to analysis of total organic halogen to quantify the collected OH-DCQ. The determination of total organic halogen was based on Standard Method 5320B[52], with modifications of using off-line ion chromatography for halide detection. Briefly, the aliquot was dissolved in 100 mL ultrapure water and acidified to pH 2 with concentrated nitric acid[52] prior to adsorption onto pre-packed activated carbon columns (Mitsubishi). A three-channel adsorption module (TXA03C, Mitsubishi Chemical Analytech) was used for adsorption. An AQF-100 automatic quick furnace (Mitsubishi Chemical Analytech) was used for pyrolysis. During the pyrolysis process, the chlorine atoms in OH-DCQ were converted to chloride. The chloride ion concentration was determined using an ICS-3000 ion chromatography system (Dionex). 2,6-DCQ was used as a standard compound for measuring total organic halogen to determine the recovery of the analysis. The total organic halogen analysis was conducted in duplicate.

With `O=C1C=C(Cl)C(=O)C(Cl)=C1O` [OH-DCQ, 3-hydroxyl-2,6-dichloro-1,4-benzoquinone] the Normal development (P. dumerilii embryos; OH-DCQ concentration 15 mg L-1) was 92.9293% and 86.7257%, the Normal development (P. dumerilii embryos; OH-DCQ concentration 25 mg L-1) was 83.1776% and 81.579% and the Normal development (P. dumerilii embryos; OH-DCQ concentration 35 mg L-1) was 84.1584% and 85.7144%. The Normal development (P. dumerilii embryos; OH-DCQ concentration 40 mg L-1) was 83.0189% and 85.5855%, the Normal development (P. dumerilii embryos; OH-DCQ concentration 48 mg L-1) was 79.8164% and 77.4194% and the Normal development (P. dumerilii embryos; OH-DCQ concentration 65 mg L-1) was 67.0813% and 64.9575%. For the same compound, the Normal development (P. dumerilii embryos; OH-DCQ concentration 85 mg L-1) was 48.8761% and 42.0329%, the “Degradation time at which concentration reached its maximum” value ([1]; 10 mg L−1, pH 8.2) was 5.5 h and the Concentration ([1]; degradation time 0 h) was 388.2 ng/mL. It also gave a Concentration ([1]; degradation time 0.25 h) of 1568 ng/mL, a Concentration ([1]; degradation time 0.5 h) of 2136 ng/mL and a Concentration ([1]; degradation time 0.75 h) of 2523 ng/mL. For the same compound, the Concentration ([1]; degradation time 1 h) was 2564 ng/mL, the Concentration ([1]; degradation time 1.25 h) was 2851 ng/mL and the Concentration ([1]; degradation time 1.5 h) was 2913 ng/mL. It also gave a Concentration ([1]; degradation time 1.75 h) of 3134 ng/mL, a Concentration ([1]; degradation time 2 h) of 3157 ng/mL and a Concentration ([1]; degradation time 2.25 h) of 3402 ng/mL. For the same compound, the Concentration ([1]; degradation time 2.5 h) was 3558 ng/mL, the Concentration ([1]; degradation time 2.75 h) was 3742 ng/mL and the Concentration ([1]; degradation time 3 h) was 3837 ng/mL. It also gave a Concentration ([1]; degradation time 3.25 h) of 4027 ng/mL, a Concentration ([1]; degradation time 3.5 h) of 4055 ng/mL and a Concentration ([1]; degradation time 3.75 h) of 4030 ng/mL. For the same compound, the Concentration ([1]; degradation time 4 h) was 4244 ng/mL, the Concentration ([1]; degradation time 4.5 h) was 4217 ng/mL and the Concentration ([1]; degradation time 5 h) was 4099.6 ng/mL. The Concentration ([1]; degradation time 5.5 h) was 4364 ng/mL, the Concentration ([1]; degradation time 6 h) was 4268 ng/mL and the Concentration ([1]; degradation time 8 h) was 4192.4 ng/mL. The Concentration ([1]; degradation time 10 h) was 3830 ng/mL, the Concentration ([1]; degradation time 12 h) was 3886 ng/mL and the Concentration ([1]; degradation time 14 h) was 3910 ng/mL. For the same compound, the Concentration ([1]; degradation time 16 h) was 3929.8 ng/mL, the Concentration ([1]; degradation time 18 h) was 3711 ng/mL and the Concentration ([1]; degradation time 20 h) was 3724 ng/mL. It also gave a Concentration ([1]; degradation time 24 h) of 3646 ng/mL, a Peak area ([1]; pH 8.2, darkness, 0 h) of 2432 and a Peak area ([1]; pH 8.2, darkness, 0.25 h) of 9916. It also gave a Peak area ([1]; pH 8.2, darkness, 0.5 h) of 13509, a Peak area ([1]; pH 8.2, darkness, 0.75 h) of 15961 and a Peak area ([1]; pH 8.2, darkness, 1 h) of 16217. The Peak area ([1]; pH 8.2, darkness, 1.25 h) was 18034, the Peak area ([1]; pH 8.2, darkness, 1.5 h) was 18424 and the Peak area ([1]; pH 8.2, darkness, 1.75 h) was 19823. For the same compound, the Peak area ([1]; pH 8.2, darkness, 2 h) was 19969, the Peak area ([1]; pH 8.2, darkness, 2.25 h) was 21520 and the Peak area ([1]; pH 8.2, darkness, 2.5 h) was 22505. The Peak area ([1]; pH 8.2, darkness, 2.75 h) was 23670, the Peak area ([1]; pH 8.2, darkness, 3 h) was 24273 and the Peak area ([1]; pH 8.2, darkness, 3.25 h) was 25472. The Peak area ([1]; pH 8.2, darkness, 3.5 h) was 25650, the Peak area ([1]; pH 8.2, darkness, 3.75 h) was 25488 and the Peak area ([1]; pH 8.2, darkness, 4 h) was 26847. The Peak area ([1]; pH 8.2, darkness, 4.5 h) was 26676, the Peak area ([1]; pH 8.2, darkness, 5 h) was 25931 and the Peak area ([1]; pH 8.2, darkness, 5.5 h) was 27605. For the same compound, the Peak area ([1]; pH 8.2, darkness, 6 h) was 26995, the Peak area ([1]; pH 8.2, darkness, 8 h) was 26518 and the Peak area ([1]; pH 8.2, darkness, 10 h) was 24223. The Peak area ([1]; pH 8.2, darkness, 12 h) was 24578, the Peak area ([1]; pH 8.2, darkness, 14 h) was 24730 and the Peak area ([1]; pH 8.2, darkness, 16 h) was 24857. It also gave a Peak area ([1]; pH 8.2, darkness, 18 h) of 23474, a Peak area ([1]; pH 8.2, darkness, 20 h) of 23553 and a Peak area ([1]; pH 8.2, darkness, 24 h) of 23064. The “Maximum concentration as share of initial molar concentration of 2,6-DCQ” value ([1]; pH 8.2, darkness) was 41%.
